Measured values reported in ChEMBL document CHEMBL1201862, “PubChem BioAssay data set” (2004).
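Test compounds were applied to cells in 96-well plates for 48 hours at 5 doses. GI50 is the concentration that inhibits growth by half.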 Activity calls are given as the source filed them. Rule as the data show it: active = GI50 up to about 1.1 µM and inactive = higher.

Experiments:
Test in all cases: NCI anticancer screen, dose series, 48 h
786-0 = test system: 786-0
ACHN = test system: ACHN
T47D = test system: T47D
SF-539 = test system: SF-539
OVCAR-3 = test system: OVCAR-3
HCT-116 = test system: HCT-116
IGROV-1 = test system: IGROV-1
COLO 205 = test system: COLO 205
NCI-H460 = test system: NCI-H460
SK-MEL-2 = test system: SK-MEL-2
KM12 = test system: KM12
SF-295 = test system: SF-295
U-251 = test system: U-251
MOLT-4 = test system: MOLT-4
SK-MEL-5 = test system: SK-MEL-5
RXF 393 = test system: RXF 393
NCI-H522 = test system: NCI-H522
CCRF-CEM = test system: CCRF-CEM
HT-29 = test system: HT-29
TK-10 = test system: TK-10
SN12C = test system: SN12C
MDA-N = test system: MDA-N
DU-145 = test system: DU-145
SF-268 = test system: SF-268
EKVX = test system: EKVX
MDA-MB-231 = test system: MDA-MB-231
CAKI-1 = test system: CAKI-1
MDA-MB-435 = test system: MDA-MB-435
K562 = test system: K562
SR = test system: SR
A549 = test system: A549
SW-620 = test system: SW-620
NCI-H226 = test system: NCI-H226
MCF7 = test system: MCF7
HL-60 = test system: HL-60
HOP-62 = test system: HOP-62
PC-3 = test system: PC-3
OVCAR-8 = test system: OVCAR-8
Hs-578T = test system: Hs-578T
Malme-3M = test system: Malme-3M
NCI/ADR-RES = test system: NCI/ADR-RES
SNB-19 = test system: SNB-19
OVCAR-5 = test system: OVCAR-5
HCC 2998 = test system: HCC 2998
SK-OV-3 = test system: SK-OV-3
RPMI-8226 = test system: RPMI-8226
M14 = test system: M14
UACC-62 = test system: UACC-62
HOP-92 = test system: HOP-92
UACC-257 = test system: UACC-257
BT-549 = test system: BT-549
OVCAR-4 = test system: OVCAR-4
UO-31 = test system: UO-31
HCT-15 = test system: HCT-15
SK-MEL-28 = test system: SK-MEL-28
NCI-H23 = test system: NCI-H23
SNB-75 = test system: SNB-75
LOX IMVI = test system: LOX IMVI

O=S(=O)(O)c1ccc(/N=N/c2ccc(/N=N/c3c(O)ccc4ccc(S(=O)(=O)O)cc34)cc2)cc1
GI50 (786-0): > 100 µM (inactive)
GI50 (ACHN): > 100 µM (inactive)
GI50 (T47D): > 100 µM (inactive)
GI50 (SF-539): > 100 µM (inactive)
GI50 (OVCAR-3): > 100 µM (inactive)
GI50 (HCT-116): > 100 µM (inactive)
GI50 (IGROV-1): > 100 µM (inactive)
GI50 (COLO 205): > 100 µM (inactive)
GI50 (NCI-H460): > 100 µM (inactive)
GI50 (SK-MEL-2): > 100 µM (inactive)
GI50 (KM12): > 100 µM (inactive)
GI50 (SF-295): > 100 µM (inactive)
GI50 (U-251): > 100 µM (inactive)
GI50 (MOLT-4): > 100 µM (inactive)
GI50 (SK-MEL-5): > 100 µM (inactive)
GI50 (RXF 393): > 100 µM (inactive)
GI50 (NCI-H522): > 100 µM (inactive)
GI50 (CCRF-CEM): > 100 µM (inactive)
GI50 (HT-29): > 100 µM (inactive)
GI50 (TK-10): > 100 µM (inactive)
GI50 (SN12C): > 100 µM (inactive)
GI50 (MDA-N): > 100 µM (inactive)
GI50 (DU-145): > 100 µM (inactive)
GI50 (SF-268): > 100 µM (inactive)
GI50 (EKVX): > 100 µM (inactive)
GI50 (MDA-MB-231): > 100 µM (inactive)
GI50 (CAKI-1): > 100 µM (inactive)
GI50 (MDA-MB-435): > 100 µM (inactive)
GI50 (K562): > 100 µM (inactive)
GI50 (SR): > 100 µM (inactive)
GI50 (A549): > 100 µM (inactive)
GI50 (SW-620): > 100 µM (inactive)
GI50 (NCI-H226): > 100 µM (inactive)
GI50 (MCF7): > 100 µM (inactive)
GI50 (HL-60): > 100 µM (inactive)
GI50 (HOP-62): > 100 µM (inactive)
GI50 (PC-3): > 100 µM (inactive)
GI50 (OVCAR-8): > 100 µM (inactive)
GI50 (Hs-578T): > 100 µM (inactive)
GI50 (Malme-3M): > 100 µM (inactive)
GI50 (NCI/ADR-RES): > 100 µM (inactive)
GI50 (SNB-19): > 100 µM (inactive)
GI50 (OVCAR-5): > 100 µM (inactive)
GI50 (HCC 2998): > 100 µM (inactive)
GI50 (SK-OV-3): > 100 µM (inactive)
GI50 (RPMI-8226): > 100 µM (inactive)
GI50 (M14): > 100 µM (inactive)
GI50 (UACC-62): > 100 µM (inactive)
GI50 (HOP-92): > 100 µM (inactive)
GI50 (UACC-257): > 100 µM (inactive)
GI50 (BT-549): > 100 µM (inactive)
GI50 (OVCAR-4): > 100 µM (inactive)
GI50 (UO-31): > 100 µM (inactive)
GI50 (HCT-15): > 100 µM
GI50 (SK-MEL-28): > 100 µM (inactive)
GI50 (NCI-H23): > 100 µM (inactive)

CCOC1CCN(C(=O)c2ccccc2)O1 (stereo not given)
GI50 (786-0): > 10 µM (inactive)
GI50 (ACHN): > 10 µM (inactive)
GI50 (T47D): > 10 µM (inactive)
GI50 (SF-539): > 10 µM (inactive)
GI50 (OVCAR-3): > 10 µM (inactive)
GI50 (HCT-116): > 10 µM (inactive)
GI50 (IGROV-1): > 10 µM (inactive)
GI50 (COLO 205): > 10 µM (inactive)
GI50 (NCI-H460): > 10 µM (inactive)
GI50 (SK-MEL-2): > 10 µM (inactive)
GI50 (SF-295): > 10 µM (inactive)
GI50 (MOLT-4): > 10 µM (inactive)
GI50 (SK-MEL-5): > 10 µM (inactive)
GI50 (RXF 393): > 10 µM (inactive)
GI50 (NCI-H522): > 10 µM (inactive)
GI50 (CCRF-CEM): > 10 µM (inactive)
GI50 (HT-29): > 10 µM (inactive)
GI50 (TK-10): > 10 µM (inactive)
GI50 (SN12C): > 10 µM (inactive)
GI50 (MDA-N): > 10 µM (inactive)
GI50 (DU-145): > 10 µM (inactive)
GI50 (SF-268): > 10 µM (inactive)
GI50 (EKVX): > 10 µM (inactive)
GI50 (MDA-MB-231): > 10 µM (inactive)
GI50 (CAKI-1): > 10 µM (inactive)
GI50 (MDA-MB-435): > 10 µM (inactive)
GI50 (K562): > 10 µM (inactive)
GI50 (SR): > 10 µM (inactive)
GI50 (A549): > 10 µM (inactive)
GI50 (SW-620): > 10 µM (inactive)
GI50 (NCI-H226): > 10 µM (inactive)
GI50 (MCF7): > 10 µM (inactive)
GI50 (HL-60): > 10 µM (inactive)
GI50 (HOP-62): > 10 µM (inactive)
GI50 (PC-3): > 10 µM (inactive)
GI50 (OVCAR-8): > 10 µM (inactive)
GI50 (SNB-75): > 10 µM (inactive)
GI50 (Hs-578T): > 10 µM (inactive)
GI50 (Malme-3M): > 10 µM (inactive)
GI50 (NCI/ADR-RES): > 10 µM (inactive)
GI50 (SNB-19): > 10 µM (inactive)
GI50 (OVCAR-5): > 10 µM (inactive)
GI50 (HCC 2998): > 10 µM (inactive)
GI50 (SK-OV-3): > 10 µM (inactive)
GI50 (RPMI-8226): > 10 µM (inactive)
GI50 (M14): > 10 µM (inactive)
GI50 (LOX IMVI): > 10 µM (inactive)
GI50 (UACC-257): > 10 µM (inactive)
GI50 (BT-549): > 10 µM (inactive)
GI50 (OVCAR-4): > 10 µM (inactive)
GI50 (UO-31): > 10 µM (inactive)
GI50 (HCT-15): > 10 µM
GI50 (SK-MEL-28): > 10 µM (inactive)
GI50 (NCI-H23): > 10 µM (inactive)
